Laboratory results taken from ChEMBL document CHEMBL1147696, “Discovery of bitriazolyl compounds as novel antiviral candidates for combating the tobacco mosaic virus” (2006).

What was measured:
Assay type in all cases: functional
Tobacco mosaic virus [1] = experiment: Antiviral activity against TMV; parameters: concentration or dose not given beside the values
Tobacco mosaic virus [2] = experiment: Induction of systemic acquired resistance of tobacco plant against TMV at 100 ug/ml by leaf spray treatment
Tobacco mosaic virus [3] = experiment: Induction of systemic acquired resistance of tobacco plant against TMV at 100 ug/ml by soil treatment

Row | SMILES | Activity (Tobacco mosaic virus [1]) [%] | Activity (Tobacco mosaic virus [2]) [%] | Activity (Tobacco mosaic virus [3]) [%]
1 | NC(=O)c1n[nH]c(-n2cc(-c3ccc(F)cc3)nn2)n1 | 0 |  | 
2 | NC(=O)c1n[nH]c(-n2cc(-c3ccccc3)nn2)n1 | 0 |  | 
3 | NC(=O)c1n[nH]c(-n2cc(C3=CCCCC3)nn2)n1 | 7 |  | 
4 | NC(=O)c1n[nH]c(-n2cc(C3(O)CCCC3)nn2)n1 | 13 |  | 
5 | COC(=O)c1n[nH]c(-n2cc(-c3ccc(F)cc3)nn2)n1 | 12 |  | 
6 | COC(=O)c1n[nH]c(-n2cc(-c3ccc(OC)cc3)nn2)n1 | 15 |  | 
7 | COC(=O)c1n[nH]c(-n2cc(C3(O)CCCC3)nn2)n1 | 10 |  | 
8 | NC(=O)c1n[nH]c(-n2cc(C3(O)CCCCC3)nn2)n1 | 0 |  | 
9 | NC(=O)c1ncn([C@@H]2O[C@H](CO)[C@@H](O)[C@H]2O)n1 [RIBAVIRIN] | 49 |  | 
10 | NC(=O)c1n[nH]c(-n2cc(CO)nn2)n1 | 8 |  | 
11 | CCCCCc1ccc(-c2cn(-c3n[nH]c(C(N)=O)n3)nn2)cc1 | 28 |  | 
12 | CCCCCc1ccc(-c2cn(-c3n[nH]c(C(=O)OC)n3)nn2)cc1 | 23 |  | 
13 | COC(=O)c1n[nH]c(-n2cc(-c3ccccc3)nn2)n1 | 63 | 10 | 10
14 | O=C1NCNC(=O)N1 | 45 |  | 
15 | COC(=O)c1n[nH]c(-n2cc(C3=CCCCC3)nn2)n1 | 75 | 0 | 0
16 | Cc1ccc(-c2cn(-c3n[nH]c(C(N)=O)n3)nn2)cc1 | 6 |  | 
17 | COC(=O)c1n[nH]c(-n2cc(-c3ccc(C)cc3)nn2)n1 | 10 |  | 
18 | CSC(=O)c1cccc2nnsc12 [ACIBENZOLAR-S-METHYL] |  | 95 | 96
19 | COc1ccc(-c2cn(-c3n[nH]c(C(N)=O)n3)nn2)cc1 | 0 |  | 
20 | NC(=O)c1cn(-c2n[nH]c(C(N)=O)n2)nn1 | 0 |  | 
21 | COC(=O)c1n[nH]c(-n2cc(COC(C)=O)nn2)n1 | 36 |  | 
22 | CCOC(=O)c1cn(-c2n[nH]c(C(=O)OC)n2)nn1 | 20 |  | 
23 | COC(=O)c1n[nH]c(-n2cc(C3(O)CCCCC3)nn2)n1 | 17 |  | 
